Test results reported in patent US20260083687A1, “COMPOUNDS FOR REDUCING LACTATION AND IMPROVING HEALTH” (AHV International B.V., priority 2022, published 2026).

Columns and labels:
[1] = tested on: Holstein Frisian dairy cows; experiment: Effect of 80 ml synthetic DPD on udder pressure, stress behavior and milk leakage after abrupt dry off (Example 3); format: in vivo, cow
Protocol: Holstein Frisian dairy cows were selected with a production of at least 12.5 kg milk/day at the last lactation. These cows were immediately treated after the last milking before abrupt dry off with 80 ml di-n-propyl disulfide (DPD) took place in the three studies of this example. Because of a limited number of available cows, a control group was available only in study 3. Treated cows were monitored for udder pressure, milk leakage and stress after the last milking every 12 hours for the first 72 hours.
46 Dairy cows (Holstein Frisian) from 7 farms in The Netherlands were enrolled in this field study for two months. In table 8 a description is presented with respect to some keeping conditions of and information about the cows.
After the last milking, the cows were isolated from the other lactating cows. Only at farm 2 and 6 the cows could hear the milking machine. After isolation the cows were administered 80 ml synthetic DPD. Hereafter, the cows were monitored by the farmer for 72 hours and scored each 12 hour after abrupt dry off. The farmer scored visually for milk leakage (yes/no-scores), udder pressure and stress according to a standard scoring form (see tables 9 and 10). Cows somatic cell count numbers were extracted from the last milk recording before drying and the first milk recording after calving (5-30 Days In Lactation).
Data analysis: the control groups with respect to milk leakage, udder stress and stress were scored and compared with the data as presented earlier in literature. For milk leakage, the data were compared assumed that 24.5% of the cows are going to leak milk after drying off (De Prado-Taranilla et al., 2020. Incidence of milk leakage after dry-off in European dairy herds, related risk factors, and its role in new intramammary infections. Journal of Dairy Science, 103(10), 9224-9237.). Udder Pressure (Bertulat et al., 2013. Measurement of fecal glucocorticoid metabolites and evaluation of udder characteristics to estimate stress after sudden dry-off in dairy cows with different milk yields. Journal of Dairy Science, 96(6), 3774-3787) and Stress (Chapinal et al., 2014. Changes in lying behavior after abrupt cessation of milking and regrouping at dry-off in free stall-housed cows: A case study. Journal of Veterinary Behavior, 9(6), 364-369;) were translated to the scoring tables as expected outcome (table 11).

[2] = tested on: cows (Holstein Friesians); experiment: Treatment with DPD analogs (organosulfur compounds) and milk yield (Example 8); format: in vivo, cow; details: individual cows; dose per compound as listed in E284
Protocol: Study design. 36 cows (Holstein Friesians) from 2 farms were used. The feed of the cows was composed of TMR, including corn and grass silage, supplemented with soya and minerals. […] The cows were milked in a milk robot. […] The cows were milked twice a day. The cows were housed in free stables. […] Placebo treatment corresponded to administration of two gel capsules containing 180 ml water.
For this study dosages synthetic compounds (>96% purity) as indicated in table 17 were administered to cows. The objective of this study was to compare the activity of a corresponding dose of the compounds expressed in mol, based on the number of moles that is present in 80 ml di-n-propyl disulfide at 20° C. The number of moles was converted to ml or grams of the tested compounds. For this purpose, the molecular weight and specific density were used in the calculations. The compounds were formulated in the gel capsules as indicated in the previous examples.
Before the various dosages were administered, the milk yields were monitored for at least 5 days.

[3] = 80 ml synthetic DPD, abrupt dry off, vs control group

CCCSSCCC [DPD, di-n-propyl disulfide]
side effects ([1]; 80 ml synthetic DPD after last milking, 46 cows): None of the cows showed any side effects | milk fever at calving ([1]; 80 ml synthetic DPD at dry off): None of the cows had milk fever at calving | average SCC (somatic cell count) ([1]; 80 ml synthetic DPD at dry off, first milk recording of the new lactation): 58,000 cells/ml | milk leakage [1, 3]: less milk leakage | stress [1, 3]: lower | udder pressure [1, 3]: lower udder pressure | average SCC (somatic cell count) ([1]; last milk recording of the last lactation (before dry off)): 89,000 cells/ml | Milk yield (kg) After 24 h [2]: 8.5 kg | Milk yield (kg) After 48 h [2]: 7.4 kg | Milk yield (kg) After 72 h [2]: 15.6 kg | Milk yield (kg) After 96 h [2]: 17.7 kg
